The source made the active and inactive calls. The calls are words filed in the database; no cut-off is given here.
Key:
EC9706 [1] = assay: Antiproliferative activity against human EC9706 cells after 72 hrs by MTT assay; format: functional, cell-based; details: EC9706, 72 h
EC9706 [2] = assay: Antiproliferative activity against human EC9706 cells after 48 hrs by MTT assay; format: functional, cell-based; details: EC9706, 48 h
EC9706 [3] = assay: Cell cycle arrest in human EC9706 cells assessed as decrease in G2/M phase population at 4 uM after 24 hrs by propidium iodide staining based flow cytometry relative to control; format: functional
EC9706 [4] = assay: Cell cycle arrest in human EC9706 cells assessed as decrease in G2/M phase population at 8 uM after 24 hrs by propidium iodide staining based flow cytometry relative to control; format: functional
EC9706 [5] = assay: Induction of morphological changes in human EC9706 cells assessed as chromatin condensation after 48 hrs by Hoechst 33342 staining based fluorescence microscopic method; format: functional, cell-based
EC9706 [6] = assay: Induction of apoptosis in human EC9706 cells assessed as late apoptotic cells at 2 uM after 48 hrs by Annexin V-FITC/propidium iodide staining based flow cytometry (reference value: 1.29 to 1.99%); format: functional
EC9706 [7] = assay: Induction of apoptosis in human EC9706 cells assessed as early apoptotic cells at 4 uM after 48 hrs by Annexin V-FITC/propidium iodide staining based flow cytometry (reference value: 0.68 to 1.58%); format: functional
EC9706 [8] = assay: Induction of apoptosis in human EC9706 cells assessed as necrotic cells at 4 uM after 48 hrs by Annexin V-FITC/propidium iodide staining based flow cytometry (reference value: 1.1 to 1.31%); format: functional
ECa-109 cell line [9] = assay: Induction of apoptosis in human EC109 cells assessed as necrotic cells at 2 uM after 48 hrs by Annexin V-FITC/propidium iodide staining based flow cytometry (reference value: 0.74 to 1.18%); format: functional
ECa-109 cell line [10] = assay: Induction of apoptosis in human EC109 cells assessed as necrotic cells at 4 uM after 48 hrs by Annexin V-FITC/propidium iodide staining based flow cytometry (reference value: 0.74 to 1.18%); format: functional
ECa-109 cell line [11] = assay: Induction of apoptosis in human EC109 cells assessed as live cells at 8 uM after 48 hrs by Annexin V-FITC/propidium iodide staining based flow cytometry (reference value: 95.2 to 99%); format: functional
ECa-109 cell line [12] = assay: Induction of apoptosis in human EC109 cells assessed as early apoptotic cells at 8 uM after 48 hrs by Annexin V-FITC/propidium iodide staining based flow cytometry (reference value: 0.43 to 1.15%); format: functional
ECa-109 cell line [13] = assay: Induction of apoptosis in human EC109 cells after 48 hrs by Annexin V-FITC/propidium iodide staining based flow cytometry; format: functional, cell-based
EC9706 [14] = assay: Induction of apoptosis in human EC9706 cells assessed as early apoptotic cells at 4 uM after 48 hrs in presence of caspase inhibitor Z-VAD-FMK by Annexin V-FITC/propidium iodide staining based flow cytometry (reference value: 0.33%); format: functional
EC9706 [15] = assay: Induction of apoptosis in human EC9706 cells assessed as necrotic cells at 4 uM after 48 hrs in presence of caspase inhibitor Z-VAD-FMK by Annexin V-FITC/propidium iodide staining based flow cytometry (reference value: 1.2%); format: functional
EC9706 [16] = assay: Induction of apoptosis in human EC9706 cells assessed as live cells at 8 uM after 48 hrs in presence of caspase inhibitor Z-VAD-FMK by Annexin V-FITC/propidium iodide staining based flow cytometry (reference value: 95.7%); format: functional
ECa-109 cell line [17] = assay: Induction of apoptosis in human EC109 cells assessed as live cells at 4 uM after 48 hrs in presence of caspase inhibitor Z-VAD-FMK by Annexin V-FITC/propidium iodide staining based flow cytometry (reference value: 96.2%); format: functional
ECa-109 cell line [18] = assay: Induction of apoptosis in human EC109 cells assessed as live cells at 8 uM after 48 hrs in presence of caspase inhibitor Z-VAD-FMK by Annexin V-FITC/propidium iodide staining based flow cytometry (reference value: 96.2%); format: functional
EC9706 [19] = assay: Induction of ROS generation in human EC9706 cells at 2 uM after 24 hrs by DCFH-DA staining based flow cytometry relative to control; format: functional
EC9706 [20] = assay: Induction of ROS generation in human EC9706 cells at 8 uM after 24 hrs by DCFH-DA staining based flow cytometry relative to control; format: functional
ECa-109 cell line [21] = assay: Induction of ROS generation in human EC109 cells at 8 uM after 24 hrs by DCFH-DA staining based flow cytometry relative to control; format: functional
EC9706 [22] = assay: Induction of ROS generation in human EC9706 cells at 2 to 4 uM after 24 hrs in presence of anti-oxidant NAC by DCFH-DA staining based flow cytometry; format: functional, cell-based
EC9706 [23] = assay: Induction of apoptosis in human EC9706 cells assessed as increase in cleaved caspase-8 protein expression after 48 hrs by Western blot analysis; format: functional, cell-based
ECa-109 cell line [24] = assay: Induction of apoptosis in human EC109 cells assessed as increase in cleaved caspase-8 protein expression after 48 hrs by Western blot analysis; format: functional, cell-based
ECa-109 cell line [25] = assay: Induction of apoptosis in human EC109 cells assessed as increase in cleaved caspase-3 protein expression after 48 hrs by Western blot analysis; format: functional, cell-based
ECa-109 cell line [26] = assay: Induction of apoptosis in human EC109 cells assessed as increase in tBid protein expression at 2 to 8 uM after 48 hrs by Western blot analysis; format: functional, cell-based
EC9706 [27] = assay: Effect on Prxs-3 protein expression in human EC9706 cells at 2 to 8 uM after 48 hrs by Western blot analysis; format: functional, cell-based
ECa-109 cell line [28] = assay: Effect on Prxs-1 protein expression in human EC109 cells at 2 to 8 uM after 48 hrs by Western blot analysis; format: functional, cell-based
ECa-109 cell line [29] = assay: Effect on Prxs-2 protein expression in human EC109 cells at 2 to 8 uM after 48 hrs by Western blot analysis; format: functional, cell-based
ECa-109 cell line [30] = assay: Effect on Prxs-3 protein expression in human EC109 cells at 2 to 8 uM after 48 hrs by Western blot analysis; format: functional, cell-based
ECa-109 cell line [31] = assay: Effect on Prxs-4 protein expression in human EC109 cells at 2 to 8 uM after 48 hrs by Western blot analysis; format: functional, cell-based
[32] = Selectivity index, ratio of IC50 for antiproliferative activity against human GES-1 cells after 72 hrs to IC50 for antiproliferative activity against human MGC803 cells after 72 hrs; format: toxicity, cell-based; details: GES-1 cells versus MGC803 cells, read-out: Ratio IC50
Mus musculus [33] = assay: Acute toxicity in C57BL/6 mouse assessed as mortality at 2 g/kg, ig measured for 2 weeks; format: organism-based; details: in vivo, po, 2000 mg/kg, 336 h
Mus musculus [34] = assay: Acute toxicity in C57BL/6 mouse assessed as change in physical phenotype at 2 g/kg, ig measured for 2 weeks; format: organism-based; details: in vivo, po, 2000 mg/kg, 336 h
Mus musculus [35] = assay: Acute toxicity in C57BL/6 mouse assessed as histopathological changes in liver at 2 g/kg, ig measured for 2 weeks by hematoxylin and eosin staining based microscopic method; format: organism-based; details: in vivo, po, 2000 mg/kg, 336 h
Mus musculus [36] = assay: Acute toxicity in C57BL/6 mouse assessed as histopathological changes in lung at 2 g/kg, ig measured for 2 weeks by hematoxylin and eosin staining based microscopic method; format: organism-based; details: in vivo, po, 2000 mg/kg, 336 h
Mus musculus [37] = assay: Acute toxicity in C57BL/6 mouse assessed as histopathological changes in spleen at 2 g/kg, ig measured for 2 weeks by hematoxylin and eosin staining based microscopic method; format: organism-based; details: in vivo, po, 2000 mg/kg, 336 h

COc1ccc(/C=N/NC(=O)c2cccc(S(=O)(=O)N3CCOCC3)c2)c(O)c1
IC50 (EC9706 [1]): 1.09 µM
IC50 (EC9706 [2]): 7.51 µM
fold change (FC) (EC9706 [3]): 0.3
fold change (FC) (EC9706 [4]): 0.26
Activity (EC9706 [5]): Dose-dependent effect
Activity (EC9706 [6]): 6.25%
Activity (EC9706 [7]): 10.8 - 29.9%
Activity (EC9706 [8]): 0.48 - 16.1%
Activity (ECa-109 cell line [9]): 2.64%
Activity (ECa-109 cell line [10]): 4.45 - 11.3%
Activity (ECa-109 cell line [11]): 25.2 - 26.7%
Activity (ECa-109 cell line [12]): 18.7 - 25%
Activity (ECa-109 cell line [13]): Dose-dependent effect
Activity (EC9706 [14]): 13.3%
Activity (EC9706 [15]): 15.2%
Activity (EC9706 [16]): 31%
Activity (ECa-109 cell line [17]): 49%
Activity (ECa-109 cell line [18]): 26.9%
fold change (FC) (EC9706 [19]): 1.16
fold change (FC) (EC9706 [20]): 1.95
fold change (FC) (ECa-109 cell line [21]): 2.21
Activity (EC9706 [22]): inactive
Activity (EC9706 [23]): Dose-dependent effect
Activity (ECa-109 cell line [24]): Dose-dependent effect
Activity (ECa-109 cell line [25]): Dose-dependent effect
Activity (ECa-109 cell line [26]): Active
Activity (EC9706 [27]): Active
Activity (ECa-109 cell line [28]): Active
Activity (ECa-109 cell line [29]): Active
Activity (ECa-109 cell line [30]): Active
Activity (ECa-109 cell line [31]): Active
selectivity ratio at 72 h [32]: 7.2
Activity (Mus musculus [33]): Non-Toxic
Activity (Mus musculus [34]): Non-Toxic
Activity (Mus musculus [35]): Non-Toxic
Activity (Mus musculus [36]): Non-Toxic
Activity (Mus musculus [37]): Non-Toxic
